Laboratory results as given in patent US20070172844A1, “Individualized cancer treatments” (University of South Florida, priority 2005, published 2007).

Key:
[1] = test system: advanced ovarian cancer patients; experiment: Clinical response to salvage chemotherapy (topotecan, paclitaxel, docetaxel); assay type: in vivo, human; settings: for Actual Overall response: Ovarian, single agent salvage therapy
Excerpt: Classification of topotecan response—Response to therapy was retrospectively evaluated from the medical record using standard criteria for patients with measurable disease, based upon WHO guidelines (Miller A B, et al., Cancer 1981;47:207-14). CA-125 was used to classify responses only in the absence of a measurable lesion; CA-125 response criteria were based on established guidelines (Miller A B, et al. Cancer 1981;47:207-14; Rustin G J, et al., Ann. Onco. 110:21-27, 1999). […] A complete response (CR) was defined as a complete disappearance of all measurable and assessable disease or, in the absence of measurable lesions, a normalization of the CA-125 level following topotecan therapy. A partial response (PR) was considered a 50% or greater reduction in the product obtained from measurement of each bi-dimensional lesion for at least 4 weeks or a drop in the CA-125 by at least 50% for at least 4 weeks. Progressive disease (PD) was defined as a 50% or greater increase in the product from any lesion documented within 8 weeks of initiation of therapy, the appearance of any new lesion within 8 weeks of initiation of therapy, or any increase in the CA-125 from baseline at initiation of therapy. Stable disease (SD) was defined as disease not meeting any of the above criteria.
Tissues—We measured expression of 22,283 genes in 12 ovarian cancer cell lines and 48 advanced (FIGO stage III/IV) serous epithelial ovarian carcinomas using Affymetrix U133A GeneChips. All ovarian cancers were obtained at initial cytoreductive surgery from patients treated at H. Lee Moffitt Cancer Center & Research Institute or Duke University Medical Center. All patients received topotecan as salvage chemotherapy after initial platinum based therapy. All tissues were collected under the auspices of a respective institutional IRB approved protocol with written informed consent.
Classification of topotecan response in tumors—Response to therapy was retrospectively evaluated from the medical record using standard criteria for patients with measurable disease, based upon WHO guidelines ((Miller A B, et al., Cancer 1981;47:207-14). CA-125 was used to classify responses only in the absence of a measurable lesion; CA-125 response criteria were based on established guidelines (Miller A B, et al. Cancer 1981;47:207-14; Rustin G J, et al., Ann. Onco. 110:21-27, 1999). A complete responder was defined as a complete disappearance of all measurable and assessable disease or, in the absence of measurable lesions, a normalization of the CA-125 level following topotecan therapy. Non-responders/patients with progressive disease (PD) were defined as a 50% o or greater increase in the primary lesion(s) documented within 8 weeks of initiation of therapy or the appearance of any new lesion within 8 weeks of initiation of therapy.
Full details of the methods used for RNA extraction and development of gene expression signatures representing deregulation of oncogenic pathways in the tumor samples are recently described.^36 Response to therapy was evaluated using standard criteria for patients with measurable disease, based upon WHO guidelines.^28

[2] = test system: ovarian cancer cell lines; experiment: Cell proliferation assays (percent reduction in growth at 96 hrs), 12 ovarian cancer cell lines, Examples 2 and 3; assay type: cell-based, human
Protocol: Cell Culture—All liquid media as well as the Thiazolyl Blue Tetrazolium Bromide were purchased from Sigma Aldrich (St. Louis, Mo.). The Src inhibitor SU6656 and the Topotecan hydrochloride were purchased from Calbiochem (San Diego, Calif.). The ovarian cancer cell lines, OV90, OVCA5, TOV21G, and TOV12D were grown as recommended by the supplier (ATCC, Rockville, Md.). FUOV1, a human ovarian carcinoma, was grown according to the supplier (DSMZ; Braunschweig, Germany). Seven additional cell lines (C13, OV2008, A2780CP, A2780S, IGROV1, T8, IMCC3) were provided by Dr. Patricia Kruk, College of Medicine (University of South Florida, Fla.). All of those seven cell lines were grown in RPMI 1640, supplemented with 10% Fetal Bovine Serum, 1% sodium pyruvate, and 1% non essential amino acids. All tissue culture reagents were obtained from Sigma (UK).
Cell proliferation assays—Growth curves for cells were produces out by plating at 500-10,000 cells per well of a 96-well plate. The growth of cells at 12 hr time points (from t=12 hrs) was determined using the CellTiter 96 Aqueous One 23 Solution Cell Proliferation Assay Kit by Promega, which is a calorimetric method for determining the number of growing cells. […] Cumulatively, these experiments determined the concentration of cells to use for each cell line, as well as the dosing range of the inhibitors. […] Sensitivity to topotecan and a Src inhibitor (SU6656), both single alone and combined was determined by quantifying the percent reduction in growth (versus DMSO controls) at 96 hrs. […]
In the analysis of the various oncogenic pathways, analysis of expression data was done as previously described in Bild A, et al., Nature 439:353-357, 2006 and West M, et al., Proc. Natl. Acad. Sci. USA 2001;98(20):11462-7). […] Each oncogenic signature summarizes its constituent genes as a single expression profile, and is derived as the first principal component of that set of genes (the factor corresponding to the largest singular value) as determined by a singular value decomposition. […]

[3] = test system: ovarian cancer cell lines; experiment: Cell proliferation assays (MTS, percentage reduction in growth at 120 hr), Example 1; assay type: cell-based, human; settings: inhibition of proliferation vs probability of pathway activation
Protocol: Cell lines and RNA extraction-The ovarian cancer cell lines, OV90, TO[…], and TO[…] were grown as recommended by the supplier (ATCC, Rockville, Md.). FUOV1, a human ovarian carcinoma, was grown according to the supplier (DSMZ, Braunschweig, Germany). Eight additional cell lines (C13, OV2008, A2780CP, A2780S, IGROV1, T8, OVCAR5 and IMCC3) were provided by Dr. Patricia Kruk, Department of Pathology, College of Medicine (University of South Florida, Tampa, Fla.). […] All tissue culture reagents were obtained from Sigma Aldrich (St. Louis, Mo.). Total RNA was extracted from each cell line and assayed on the Human 133 plus 2.0 arrays. Cell proliferation assays-Assays measuring cell proliferation and the effects of targeted agents have been described previously^36. Briefly, growth curves for the ovarian cancer cell lines were carried out by plating 300-4000 cells per well of a 96-well plate. The growth of cells at 12 hr time points (from t=12 hrs) was determined using the CellTiter 96 Aqueous One Solution Cell Proliferation Assay Kit by Promega, which is a colorimetric method for determining the number of growing cells. […] The degree of proliferation inhibition was plotted as a function of probability of Src pathway activation or E2F3 pathway activation.

[4] = test system: breast cancer patients; settings: Breast Tumor Data; published neoadjuvant data sets (MDACC TFAC n=51, complete pathologic response; single agent docetaxel n=24); cited from earlier work
[5] = test system: ovarian cancer cell lines; experiment: Cell proliferation assay (MTT, 96 hrs), topotecan and SU6656 in 13 ovarian cell lines; assay type: cell-based, human; settings: 13 ovarian cancer cell lines
Protocol: Cell proliferation assays. Growth curves for cells were produced by plating 500-10,000 cells per well in 96-well plates. The growth of cells at 12 hr time points (from t=12 hrs) was determined using the CellTiter 96 Aqueous One 23 Solution Cell Proliferation Assay Kit by Promega, which is a colorimetric method for determining the number of growing cells.^36 The growth curves plot the growth rate of cells vs. each concentration of drug tested against individual cell lines. Cumulatively, these experiments determined the concentration of cells to use for each cell line, as well as the dosing range of the inhibitors. The final dose-response curves in our experiments plot the percent of cell population responding to the chemotherapy vs. the concentration of the drug for each cell line. Sensitivity to docetaxel and a phosphatidylinositol 3-kinase (PI3 kinase) inhibitor (LY-294002)^36 in 17 lung cell lines, and topotecan and a Src inhibitor (SU6656) in 13 ovarian cell lines was determined by quantifying the percent reduction in growth (versus DMSO controls) at 96 hrs using a standard MTT colorimetric assay.^36 Concentrations used ranged from 1-10 nM for docetaxel, 300 nM-10 μM (SU6656), and 300 nM-[…] for LY-294002. All experiments were repeated at least three times.

[6] = test system: adriamycin treated patients; settings: Evans et al data set, n=122; cited from earlier work

For `CC[C@@]1(O)C(=O)OCc2c1cc1n(c2=O)Cc2cc3c(CN(C)C)c(O)ccc3nc2-1` [Topotecan, topotecan], the “Actual Overall response” value [1] was 20/48 (41.6%), the “patients classified as topotecan non-responders” value ([1]; of 48 patients, non-responder = PD) was 18 and the “patients classified as topotecan responders” value ([1]; of 48 patients, responder = CR, PR or SD) was 30.
With `CC(=O)O[C@H]1C(=O)[C@@]2(C)[C@H]([C@H](OC(=O)c3ccccc3)[C@]3(O)C[C@H](OC(=O)[C@H](O)[C@@H](NC(=O)c4ccccc4)c4ccccc4)C(C)=C1C3(C)C)[C@]1(OC(C)=O)CO[C@@H]1C[C@@H]2O` [Paclitaxel, paclitaxel] the “Actual Overall response” value [1] was 20/35 (57.1%).
With `CC[C@H](CO)Nc1nc(NCc2ccccc2)c2ncn(C(C)C)c2n1` [CYC202/R-Roscovitine] the “relationship between predicted adriamycin resistance and sensitivity to cdk inhibitor” value ([2]; ovarian cancer cell lines) was “coincides with sensitivity to R-Roscovitine” and the “relationship between predicted pathway deregulation (Src or E2F3) and drug sensitivity” value [3] was “clear and statistically significant relationship”.
In the case of `N.N.[Cl][Pt][Cl]` [cisplatin], the “relationship between predicted pathway deregulation (Src or E2F3) and drug sensitivity” value [3] is reported as “no evident relationship”.
For `CC(=O)O[C@@]12CO[C@@H]1C[C@H](O)[C@@]1(C)C(=O)[C@H](O)C3=C(C)[C@@H](OC(=O)[C@H](O)[C@@H](NC(=O)OC(C)(C)C)c4ccccc4)C[C@@](O)([C@@H](OC(=O)c4ccccc4)[C@H]21)C3(C)C` [Docetaxel, docetaxel], the “Actual Overall response” value [1] is listed as 7/14 (50%) and the “Actual Overall response” value [4] is listed as 13/24 (54.1%).
In the case of `CN(C)S(=O)(=O)c1ccc2c(c1)/C(=C/c1cc3c([nH]1)CCCC3)C(=O)N2` [SU6656], the “relationship between predicted src-pathway deregulation and response to src-inhibitor alone” value ([2]; 12 ovarian cancer cell lines) is reported as “clear relationship”, the “effect of Src inhibitor on sensitivity to topotecan” value ([2]; growth inhibition, 12 ovarian cancer cell lines) is reported as “increases ovarian cancer cell line sensitivity to topotecan” and the “relationship between probability of topotecan resistance and sensitivity to Src pathway inhibitor” value [5] is reported as “significant linear relationship”. For the same compound, the “relationship between predicted pathway deregulation (Src or E2F3) and drug sensitivity” value [3] was “clear and statistically significant relationship”.
For `COc1cccc2c1C(=O)c1c(O)c3c(c(O)c1C2=O)C[C@@](O)(C(=O)CO)C[C@@H]3O[C@H]1C[C@H](N)[C@H](O)[C@H](C)O1` [Adriamycin, adriamycin], the “Actual Overall response” value [6] is listed as 24/122 (19.6%).
